# Source: patent US20240287533A1, “GLUTEN MODIFICATION” (The Regents of the University of California, priority 2021, published 2024)
# Entries after “also recorded” stand apart in the source; their conditions may differ.
# Experiments:
# human monocytes (THP-1) = assay: IL-8 production by THP-1 monocytes (ELISA); type: cell-based; settings: 18 hours; for IL-8 production compared to the dsDNA-gld-1 complex: peptide in the presence of dsDNA; for IL-8 secretion: dsDNA+peptide, compared to media control, dsDNA alone or peptide alone
# Method: (§1) In order to test the biological impact of gluten peptide fragment/dsDNA complexes, human monocytes (THP-1) and human colorectal adenocarcinoma cells (HT-29) were treated with medium as a control, dsDNA alone, gld-1 alone, or dsDNA+gld-1 for 18 hours, then production and secretion of interleukin-8 (IL-8) were assessed by ELISA.
# Escherichia coli dsDNA = assay: Small Angle X-ray Scattering (SAXS) of peptide-dsDNA complexes; type: binding; settings: peptide incubated with genomic E. coli dsDNA
# Method: The peaks correspond to a rhombic columnar lattice with inter dsDNA spacing, d=4.0 nm, and tilt angle, γ=104.6°. To facilitate visualization, spectra were manually offset vertically by a multiplicative factor.
# Double stranded DNA (dsDNA) is an example of a PAMP that is readily available in the gastrointestinal tract (e.g., from food or the gut microbiome). To assess the ability of gluten derived peptide gld-1 to bind dsDNA, Escherichia coli dsDNA was incubated with gld-1, and the formation of an ordered dsDNA-gld-1 complex was assessed.
# Small Angle X-ray Scattering (SAXS) measurements of the complex produced Bragg reflections at q10=1.61 and q11=2.55 nm^−1.
# Genomic E. coli dsDNA was incubated with gld-2 and gld-3 to test the formation of an ordered dsDNA-peptide complex.
# [1] = system: HEK293 cells (which do not express TLR9); assay: NF-κB/IL-8 luciferase reporter in HEK293 cells transfected with pcDNA3.1 vector control; type: cell-based, human; settings: 4 hours
# Method: (§2) After 48 hours of recovery, cells were then treated for 4 hours with medium as a control, dsDNA alone, gld-1 peptide alone, or dsDNA-gld-1 complex, and luciferase activity measured.
# human wild-type TLR9 = biological target: T1, human wild-type TLR9 (Homo sapiens, UniProt Q9NR96); assay: NF-κB/IL-8 luciferase reporter in HEK293 cells transfected with TLR9 plasmid; type: cell-based; settings: 4 hours
# T1 construct: expressed in transfected cells
# T1 sequence (Q9NR96 26-1032): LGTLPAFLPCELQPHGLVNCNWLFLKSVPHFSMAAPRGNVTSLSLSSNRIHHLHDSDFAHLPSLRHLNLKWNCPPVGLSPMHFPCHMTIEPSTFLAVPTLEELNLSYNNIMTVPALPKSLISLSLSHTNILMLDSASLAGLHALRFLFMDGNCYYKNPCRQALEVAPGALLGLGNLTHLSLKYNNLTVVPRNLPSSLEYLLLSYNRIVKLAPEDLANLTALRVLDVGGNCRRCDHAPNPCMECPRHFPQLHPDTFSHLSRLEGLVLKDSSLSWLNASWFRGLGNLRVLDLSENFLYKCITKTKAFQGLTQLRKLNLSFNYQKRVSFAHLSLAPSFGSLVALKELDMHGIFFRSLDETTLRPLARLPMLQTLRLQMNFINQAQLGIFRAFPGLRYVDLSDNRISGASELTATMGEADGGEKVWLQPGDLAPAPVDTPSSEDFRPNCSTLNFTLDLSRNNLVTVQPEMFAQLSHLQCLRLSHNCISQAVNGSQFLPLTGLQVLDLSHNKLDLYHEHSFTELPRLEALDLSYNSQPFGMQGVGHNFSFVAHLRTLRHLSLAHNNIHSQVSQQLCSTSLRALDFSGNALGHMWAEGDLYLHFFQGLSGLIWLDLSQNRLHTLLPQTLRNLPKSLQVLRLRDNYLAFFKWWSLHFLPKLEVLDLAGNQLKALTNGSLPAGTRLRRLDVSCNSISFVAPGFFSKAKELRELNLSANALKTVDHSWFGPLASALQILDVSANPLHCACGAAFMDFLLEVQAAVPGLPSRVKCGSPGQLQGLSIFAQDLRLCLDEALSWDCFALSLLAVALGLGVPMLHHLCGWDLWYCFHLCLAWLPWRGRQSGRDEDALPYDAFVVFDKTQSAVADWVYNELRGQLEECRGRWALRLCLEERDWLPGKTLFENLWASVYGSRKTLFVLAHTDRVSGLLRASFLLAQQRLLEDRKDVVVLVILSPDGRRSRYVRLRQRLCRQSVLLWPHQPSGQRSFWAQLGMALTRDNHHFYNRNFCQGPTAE
# Method: TLR9, Toll-like Receptor 9.
# as §2
# [2] = system: human colorectal adenocarcinoma cells (HT-29); assay: IL-8 production by HT-29 cells (ELISA); type: cell-based; settings: dsDNA+peptide, 18 hours, compared to dsDNA or peptide alone or media control
# Method: as §1
# wild-type macrophages = assay: Cytokine gene expression (qPCR) in wild-type macrophages; type: cell-based, mouse; settings: dsDNA-peptide complex, 20 hours
# Description: (§3) To further validate the role of the dsDNA-gld-1 complex in the innate immune activation of TLR9, TLR9 knock-out (TLR9KO) mouse macrophages were compared to wild-type controls. […] Such increased gene expression was attenuated in TLR9KO macrophages, which lack TLR9 (FIG. 6C).
# [3] = system: TLR9 knock-out (TLR9KO) mouse macrophages; assay: Cytokine gene expression (qPCR) in TLR9 knockout macrophages; type: cell-based; settings: dsDNA-peptide complex, 20 hours, TLR9KO versus wild-type
# Description: as §3
sequence,measurement,setting,value
"LWQIPEQSQCQAIHNVVHA (listed as Triticum aestivum) [gld-2, single mutation of gld-1 replacing a cationic amino acid with glutamine]",IL-8 production compared to the dsDNA-gld-1 complex,human monocytes (THP-1),attenuated production of IL-8
same,formation of an ordered nanocrystalline dsDNA-peptide complex (Bragg peaks),Escherichia coli dsDNA,inability of these two peptides to form an ordered nanocrystalline columnar structure with dsDNA
"LWQIPEQSQCQAIHNVVQA (listed as Triticum aestivum) [gld-3, double mutation of gld-1 replacing cationic amino acids with glutamine]",IL-8 production compared to the dsDNA-gld-1 complex,human monocytes (THP-1),attenuated production of IL-8
same,formation of an ordered nanocrystalline dsDNA-peptide complex (Bragg peaks),Escherichia coli dsDNA,inability of these two peptides to form an ordered nanocrystalline columnar structure with dsDNA
RCCQQLRDVSAKCRSVAVSQVAR (listed as Triticum aestivum) [gld-4],IL-8 secretion,human monocytes (THP-1),stimulated IL-8 production
same,IL-8 production compared to the dsDNA-gld-1 complex,human monocytes (THP-1),smaller than the dsDNA-gld-1 complex
LWQIPEQSRCQAIHNVVHA (listed as Triticum aestivum) [gld-1],NF-κB/IL-8 luciferase reporter signal,[1]; dsDNA-peptide complex,comparable NF-κB/IL-8 luciferase reporter signal to the media control
same,NF-κB/IL-8 luciferase reporter signal,[1]; peptide alone,comparable NF-κB/IL-8 luciferase reporter signal to the media control
same,NF-κB/IL-8 activation (luciferase),"human wild-type TLR9; dsDNA-peptide complex, compared to dsDNA alone",significantly higher activation
same,NF-κB/IL-8 activation (luciferase),"human wild-type TLR9; dsDNA-peptide complex, compared to the media control",significant increase
same,NF-κB/IL-8 activation (luciferase),"human wild-type TLR9; peptide alone, compared to the media control",did not significantly increase activation
same,IL-8 secretion,human monocytes (THP-1),significant increase in IL-8 secretion
same,IL-8 secretion,[2],increased secretion of IL-8
same,interleukin-6 (IL-6) gene expression,wild-type macrophages,significant increase
same,keratinocyte-derived chemokine (KC) gene expression,wild-type macrophages,significant increase
same,IL-6 gene expression,[3],attenuated
same,formation of an ordered nanocrystalline dsDNA-peptide complex (Bragg peaks),Escherichia coli dsDNA,form strongly immunomodulatory complexes with dsDNA; also recorded: able to organize dsDNA into a nano-crystalline lattice structure; also recorded: able to form a well-structured complex
"RAAQQLRDVSAKARSVAVSQVAR (listed as Triticum aestivum) [gld-4A, cysteine-to-alanine mutant of gld-4]","IL-8 production, gld-4A compared to gld-4",human monocytes (THP-1); with dsDNA,No significant difference
"LAAQLWQIPEQSRAQAIHNVVH (listed as Triticum aestivum) [gld-1A, variant of gld-1 in which all cysteines were replaced with alanines]",IL-8 production compared to the dsDNA-gld-1 complex,human monocytes (THP-1),reduced the dsDNA-peptide complex activity
